{
  "source": "paper PMC5074247",
  "about": "(Biopharmaceutics & Drug Disposition, 2016)",
  "key": {"[1]": {"experiment": "Whole‐body autoradiography of SD rats", "format": "in vivo, Sprague–Dawley rats", "conditions": "168 h, oral 1 mg/kg, SD rat"}, "[2]": {"conditions": "cited from earlier work"}, "[3]": {"conditions": "SHRcp model ref 40; cited from earlier work"}, "[4]": {"experiment": "Volume of distribution at steady state after intravenous administration to rats", "format": "in vivo", "conditions": "rat, plasma"}, "[5]": {"experiment": "Tissue distribution of radioactivity in SD rats", "format": "in vivo, Sprague–Dawley rats", "conditions": "oral 1 mg/kg"}},
  "note": "Read-outs that look alike come from different tables or passages of the source.",
  "data": [
    {"smiles": "Cc1cc(N2CCN([C@@H]3CN[C@H](C(=O)N4CCSC4)C3)CC2)n(-c2ccccc2)n1", "note": "[Teneligliptin, 3‐[(2S,4S)‐4‐[4‐(3‐methyl‐1‐phenyl‐1H‐pyrazol‐5‐yl)piperazin‐1‐yl]pyrrolidin‐2‐ylcarbonyl] thiazolidine]", "values": [
      {"measurement": "radioactivity in autoradiogram", "setting": "[1]; kidney", "value": "relatively high level of radioactivity"},
      {"measurement": "radioactivity in autoradiogram", "setting": "[1]; liver", "value": "low level of radioactivity"},
      {"measurement": "radioactivity in autoradiogram", "setting": "[1]; other tissues examined", "value": "negligible radioactivity"},
      {"measurement": "exposure versus healthy subjects", "setting": "[2]; patients with hepatic disorders ref 18", "value": 1.59, "unit": "fold"},
      {"measurement": "exposure versus healthy subjects", "setting": "[2]; patients with renal disorders ref 17", "value": 1.68, "unit": "fold"},
      {"measurement": "TNF‐α expression in the aorta", "setting": "[3]", "value": "decreased"},
      {"measurement": "endothelial dysfunction", "setting": "[3]", "value": "attenuated"},
      {"measurement": "Vd", "setting": "[4]", "value": 8.9, "unit": "L/kg"},
      {"measurement": "Concentration of radioactivity", "setting": "[5]; Adrenal, 0.5 h", "value": "1221.7 ± 289.0 ng eq/ml or g"},
      {"measurement": "Concentration of radioactivity", "setting": "[5]; Adrenal, 5 h", "value": "323.7 ± 90.7 ng eq/ml or g"},
      {"measurement": "Concentration of radioactivity", "setting": "[5]; Adrenal, 12 h", "value": "177.0 ± 22.7 ng eq/ml or g"},
      {"measurement": "Concentration of radioactivity", "setting": "[5]; Adrenal, 24 h", "value": "100.4 ± 8.8 ng eq/ml or g"},
      {"measurement": "Concentration of radioactivity", "setting": "[5]; Adrenal, 72 h", "value": "20.5 ± 4.3 (N.C.) ng eq/ml or g"},
      {"measurement": "Concentration of radioactivity", "setting": "[5]; Adrenal, 168 h", "value": "6.5 ± 4.5 (N.C.) ng eq/ml or g"},
      {"measurement": "Concentration of radioactivity", "setting": "[5]; Aorta, 0.5 h", "value": "488.7 ± 78.4 ng eq/ml or g"},
      {"measurement": "Concentration of radioactivity", "setting": "[5]; Aorta, 5 h", "value": "99.0 ± 46.0 ng eq/ml or g"},
      {"measurement": "Concentration of radioactivity", "setting": "[5]; Aorta, 12 h", "value": "35.7 ± 16.7 ng eq/ml or g"},
      {"measurement": "Concentration of radioactivity", "setting": "[5]; Aorta, 24 h", "value": "15.4 ± 5.2 ng eq/ml or g"},
      {"measurement": "Concentration of radioactivity", "setting": "[5]; Bone, 0.5 h", "value": "118.7 ± 22.2 ng eq/ml or g"},
      {"measurement": "Concentration of radioactivity", "setting": "[5]; Bone, 5 h", "value": "52.3 ± 19.9 ng eq/ml or g"},
      {"measurement": "Concentration of radioactivity", "setting": "[5]; Bone, 12 h", "value": "23.8 ± 7.5 ng eq/ml or g"},
      {"measurement": "Concentration of radioactivity", "setting": "[5]; Epididymis, 0.5 h", "value": "232.5 ± 61.7 ng eq/ml or g"},
      {"measurement": "Concentration of radioactivity", "setting": "[5]; Epididymis, 5 h", "value": "352.5 ± 76.0 ng eq/ml or g"},
      {"measurement": "Concentration of radioactivity", "setting": "[5]; Epididymis, 12 h", "value": "259.9 ± 44.4 ng eq/ml or g"},
      {"measurement": "Concentration of radioactivity", "setting": "[5]; Epididymis, 24 h", "value": "167.6 ± 35.4 ng eq/ml or g"},
      {"measurement": "Concentration of radioactivity", "setting": "[5]; Epididymis, 72 h", "value": "44.9 ± 3.8 (N.C.) ng eq/ml or g"},
      {"measurement": "Concentration of radioactivity", "setting": "[5]; Epididymis, 168 h", "value": "11.2 ± 3.3 (N.C.) ng eq/ml or g"},
      {"measurement": "Concentration of radioactivity", "setting": "[5]; Heart, 0.5 h", "value": "454.0 ± 85.0 ng eq/ml or g"},
      {"measurement": "Concentration of radioactivity", "setting": "[5]; Heart, 5 h", "value": "118.7 ± 34.6 ng eq/ml or g"},
      {"measurement": "Concentration of radioactivity", "setting": "[5]; Heart, 12 h", "value": "56.6 ± 8.9 ng eq/ml or g"},
      {"measurement": "Concentration of radioactivity", "setting": "[5]; Heart, 24 h", "value": "30.6 ± 2.7 ng eq/ml or g"},
      {"measurement": "Concentration of radioactivity", "setting": "[5]; Heart, 72 h", "value": "6.3 ± 1.1 (N.C.) ng eq/ml or g"},
      {"measurement": "Concentration of radioactivity", "setting": "[5]; Kidney, 0.5 h", "value": "4568.2 ± 609.1 ng eq/ml or g"},
      {"measurement": "Concentration of radioactivity", "setting": "[5]; Kidney, 5 h", "value": "3292.8 ± 76.8 ng eq/ml or g"},
      {"measurement": "Concentration of radioactivity", "setting": "[5]; Kidney, 12 h", "value": "2872.1 ± 419.4 ng eq/ml or g"},
      {"measurement": "Concentration of radioactivity", "setting": "[5]; Kidney, 24 h", "value": "2637.8 ± 410.3 ng eq/ml or g"},
      {"measurement": "Concentration of radioactivity", "setting": "[5]; Kidney, 72 h", "value": "1548.5 ± 192.3 (N.C.) ng eq/ml or g"},
      {"measurement": "Concentration of radioactivity", "setting": "[5]; Kidney, 168 h", "value": "606.1 ± 203.2 (N.C.) ng eq/ml or g"},
      {"measurement": "Concentration of radioactivity", "setting": "[5]; Liver, 0.5 h", "value": "4686.7 ± 932.3 ng eq/ml or g"},
      {"measurement": "Concentration of radioactivity", "setting": "[5]; Liver, 5 h", "value": "1753.2 ± 130.4 ng eq/ml or g"},
      {"measurement": "Concentration of radioactivity", "setting": "[5]; Liver, 12 h", "value": "814.1 ± 68.7 ng eq/ml or g"},
      {"measurement": "Concentration of radioactivity", "setting": "[5]; Liver, 24 h", "value": "389.5 ± 49.5 ng eq/ml or g"},
      {"measurement": "Concentration of radioactivity", "setting": "[5]; Liver, 72 h", "value": "250.2 ± 21.8 (N.C.) ng eq/ml or g"},
      {"measurement": "Concentration of radioactivity", "setting": "[5]; Liver, 168 h", "value": "92.4 ± 17.2 (N.C.) ng eq/ml or g"},
      {"measurement": "Concentration of radioactivity", "setting": "[5]; Lung, 0.5 h", "value": "1938.4 ± 456.7 ng eq/ml or g"},
      {"measurement": "Concentration of radioactivity", "setting": "[5]; Lung, 5 h", "value": "714.7 ± 116.7 ng eq/ml or g"},
      {"measurement": "Concentration of radioactivity", "setting": "[5]; Lung, 12 h", "value": "500.7 ± 40.2 ng eq/ml or g"},
      {"measurement": "Concentration of radioactivity", "setting": "[5]; Lung, 24 h", "value": "323.6 ± 46.7 ng eq/ml or g"},
      {"measurement": "Concentration of radioactivity", "setting": "[5]; Lung, 72 h", "value": "71.3 ± 12.9 (N.C.) ng eq/ml or g"},
      {"measurement": "Concentration of radioactivity", "setting": "[5]; Lung, 168 h", "value": "16.9 ± 5.9 (N.C.) ng eq/ml or g"},
      {"measurement": "Concentration of radioactivity", "setting": "[5]; Pancreas, 0.5 h", "value": "1253.9 ± 341.0 ng eq/ml or g"},
      {"measurement": "Concentration of radioactivity", "setting": "[5]; Pancreas, 5 h", "value": "298.9 ± 83.1 ng eq/ml or g"},
      {"measurement": "Concentration of radioactivity", "setting": "[5]; Pancreas, 12 h", "value": "107.8 ± 22.6 ng eq/ml or g"},
      {"measurement": "Concentration of radioactivity", "setting": "[5]; Pancreas, 24 h", "value": "50.8 ± 1.2 ng eq/ml or g"},
      {"measurement": "Concentration of radioactivity", "setting": "[5]; Pancreas, 72 h", "value": "8.3 ± 1.8 (N.C.) ng eq/ml or g"},
      {"measurement": "Concentration of radioactivity", "setting": "[5]; Pancreas, 168 h", "value": "3.4 ± 0.9 (N.C.) ng eq/ml or g"}
    ]}
  ]
}
